Values of other authors in US11856951B2, “Method for managing resistance to insecticidal traits and chemicals using pheromones” (Provivi, Inc., priority 2015, dated 2024).

Tests used:
mated female H. armigera = conditions: mated females
H. armigera males = conditions: wind tunnel assays

CCCCCCCCCCCCCCCC(=O)O [C16:0]
electroantennogram response (mated female H. armigera): strong electroantennogram responses

CCCC(C)CCCC(C)CCCC(C)C(=O)OC (centres unmarked) [TMTD, methyl 2,6,10-trimethyltridecanoate]
attraction to lures (Female E. heros): attracted

CCCCCCCCCCCCCC(=O)O [C14:0]
electroantennogram response (mated female H. armigera): strong electroantennogram responses

CCCC/C=C\CCCCCCCCCCO [Z11-16:OH]
effect on male upwind flight (H. armigera males): inhibits male upwind flight

C=C [ethylene]
correlation of concentration with calling behaviour (virgin female H. zea): positively correlated

CCCCCCC=O [Heptanal]
attractiveness of an oviposition substrate (mated H. armigera): significantly increase the attractiveness

CCCCCCCCCCCCCCCCCC(=O)O [C18:0]
electroantennogram response (mated female H. armigera): strong electroantennogram responses

O=Cc1ccccc1 [benzaldehyde]
attractiveness of an oviposition substrate (mated H. armigera): significantly increase the attractiveness
